Tests used:
[1] = tested on: 4T1 cells; test: MTT cell viability assay; type: cell-based; conditions: Mus musculus, 48 h
Procedure: (§1) MDA-MB-231 (5000 cells per well), MDA-MB-468 (6000 cells per well), SUM159 (3000 cells per well), 4T1 (2000 cells per well), EMT6 (2000 cells per well), E0771 (3000 cells per well), MCF10A (5000 cells per well) and MCF12A (5000 cells per well) cells were seeded in 96-well culture plates. On the next day, cells were treated with either DMSO or indicated concentrations of SU056 for 48 h 3-(4,5-dimethylthiazol-2-yl)-2,5-diphenyltetrazolium bromide (MTT) (0.5 mg/mL) was dissolved in 1x PBS and 50 μL were added to each well and allowed to form formazan crystals (1–2 h) followed by removal of MTT. Formazan crystals were dissolved in DMSO and plates were scanned at 570nm using a Tecan multimode plate reader.

[2] = tested on: E0771 cells; test: MTT cell viability assay; type: cell-based; conditions: Mus musculus, 48 h
Procedure: as §1

[3] = tested on: EMT6 cells; test: MTT cell viability assay; type: cell-based; conditions: Mus musculus, 48 h
Procedure: as §1

[4] = tested on: MDA-MB-231 cells; test: MTT cell viability assay; type: cell-based; conditions: Homo sapiens, MDA-MB-231, 48 h
Procedure: as §1

[5] = tested on: MDA-MB-468 cells; test: MTT cell viability assay; type: cell-based; conditions: Homo sapiens, 48 h
Procedure: as §1

[6] = tested on: SUM159 cells; test: MTT cell viability assay; type: cell-based; conditions: Homo sapiens, 48 h
Procedure: as §1

[7] = molecular target: kinases; test: KINOMEscan multi-kinase profiling; type: binding; conditions: 10 μM
Procedure: The multi-kinase inhibition profile of SU056 was determined via the KINOMEScan screening platform (Eurofins discovery). The screening was performed at 10 μM of SU056. The kinase dendrogram was developed using the TREEspot interaction maps online application (Eurofins Discovery). The results are expressed as residual activity (% Control).

[8] = tested on: MDA-MB-231, MDA-MB-468 and MCF12A cells; test: Global proteome profiling with pathway enrichment; type: cell-based, human; conditions: 1 μM, 12 h, TNBC cells vs vehicle
Procedure: MDA-MB-231, MDA-MB-468, and MCF12A cells were grown to 80% confluence and then treated with DMSO (vehicle control) or SU056 (1 μM) for 12 h. Cells were washed twice with phosphate-buffered saline (PBS), harvested by scaping, and centrifuged. Cells were lysed by vortexing in 100 mM triethylammonium bicarbonate (TEAB, Thermo Fisher Scientific) in 1% sodium dodecyl sulfate (SDS). The lysate was centrifuged, and the supernatant was retained. A bicinchoninic acid assay (BCA, Thermo Scientific, Rockville, IL) was used to measure protein concentration and 50 μg of protein per sample was subjected to disulfide bond reduction using 10 mM TCEP (Sigma Aldrich) for 1 h at 55°C. Cysteine resides were then alkylated with iodoacetamide (Sigma Aldrich) for 30 min at room temperature in the dark. […] All samples were analyzed in triplicate.
Using a Dionex Ultimate Rapid Separation Liquid Chromatography system (Thermo Fisher Scientific), a 3 μL injection of the combined TMT-labeled peptide solution was loaded onto a PepMap 100 C18 trap column (Thermo Fisher Scientific) at a rate of 5 μL/min for 10 min. […] The flow rate was set to 0.6 μL/min throughout the gradient and each sample was analyzed in triplicate. […]
Raw LC-MS/MS data was analyzed using MaxQuant[50] searching against the Swiss-Prot human reference proteome database (20,626 entries as of 2020). […]

[9] = tested on: MDA-MB-231 cells; test: Polysome profiling; type: cell-based, human; conditions: 1 μM, 12 h
Procedure: 1 x 10^6 MDA-MB-231 cells were plated in 100 mm culture plate and allowed to be attached for 24 h. Next day, cells were treated with vehicle or SU056 (1 μM) for 12 h in regular culture medium. Next, cells were incubated with cycloheximide (10 μg/mL) for 5 min at 37°C. Cells were then washed twice in 1x PBS with 10 μg/mL cycloheximide and collected by trypsinization and snap freeze in liquid nitrogen. Cell pellet was lysated in 250 μL polysome lysis buffer (5 mM Tris-HCl [pH 7.4], 1.5 mM KCl, 2.5 mM MgCl2, 0.1 mg/mL cycloheximide, 100 U/mL RNasin, 1× EDTA-free Complete protease inhibitor cocktail, 2 mM DTT, 0.5% Triton X-100, 0.5% deoxycholate). Lysate were quantified taking absorbance at 260 nm using Nanodrop and loaded on a linear 15%–50% sucrose gradient. The gradients were ultracentrifuged SW41Ti rotor (Beckman) for 1 h and 30 min at 180,000 g at 4°C in Beckman Optima LE-80K Ultracentrifuge. The gradients were fractionated in 1 mL volume fractions with continuous monitoring absorbance at 254 nm using an ISCO UA-6 UV detector at Immagina Biotechnology, Pergine, Italy.

**Q.** What does the source list for O=C1OCC2=C1C(c1cccc(F)c1)c1cc3c(cc1N2CCO)OCO3 (stereo not drawn) [SU056, 9-(3-fluorophenyl)-5-(2-hydroxyethyl)-6,9-dihydro-[1,3]dioxolo[4,5-g]furo[3,4-b]quinolin-8(5H)-one]?
**A.** IC50 [1]: 7150 ± 1260 nM; IC50 [2]: 1540 ± 140 nM; IC50 [3]: 1500 ± 120 nM; IC50 [4]: 1270 ± 190 nM; IC50 [5]: 1360 ± 270 nM; IC50 [6]: 1170 ± 340 nM; kinase activity inhibition [7]: does not inhibit; protein translation processes (proteomic pathway analysis) [8]: modulated; translational efficiency compared to control cells [9]: reduced translational efficiency

From paper PMC11148772, “Inhibition of protein translational machinery in triple-negative breast cancer as a promising therapeutic strategy” (Cell Reports Medicine, 2024)
